Experimental data as given in patent US8129380B2, “Phthalazinone derivatives” (AstraZeneca AB, priority 2008, dated 2012).

Assays:
[1] = tested on: HeLa cells; test: Potentiation Factor (PF50): MMS growth inhibition, SRB assay; assay type: cell-based; conditions: MMS 0-10 μg/ml, ratio IC50 control / IC50 + inhibitor; for PF50 (30 nM): PARP inhibitor at 30 nM; for PF50 (200 nM): PARP inhibitor at 200 nM
Method: The Potentiation Factor (PF50) for compounds is calculated as a ratio of the IC50 of control cell growth divided by the IC50 of cell growth+PARP inhibitor. Growth inhibition curves for both control and compound treated cells are in the presence of the alkylating agent methyl methanesulfonate (MMS). The test compounds were used at a fixed concentration of 0.2 micromolar. The concentrations of MMS were over a range from 0 to 10 μg/ml.
2,000 HeLa cells were seeded into each well of a flat-bottomed 96-well microtiter plate in a volume of 100 μl and incubated for 6 hours at 37° C. Cells were either replaced with media alone or with media containing PARP inhibitor at a final concentration of 30 nM or 200 nM. […] Cells treated with PARP inhibitor alone were used to assess the growth inhibition by the PARP inhibitor.
Cells were left for a further 16 hours before replacing the media and allowing the cells to grow for a further 72 hours at 37° C. The media was then removed and the cells fixed with 100 μl of ice cold 10% (w/v) trichloroacetic acid. The plates were incubated at 4° C. for 20 minutes and then washed four times with water. Each well of cells was then stained with 100 μl of 0.4% (w/v) SRB in 1% acetic acid for 20 minutes before washing four times with 1% acetic acid. Plates were then dried for 2 hours at room temperature. The dye from the stained cells was solubilized by the addition of 100 μl of 10 mM Tris Base into each well.

[2] = Solubility in 0.1 M phosphate buffer; assay type: physicochemical; conditions: pH 7.4, 24 hours, 25° C.
Method: The solubility of the test compounds was measured following a method described in Leach, A., et al., J Med Chem (2006), 49(23), 6672-6682:
Solubility values are determined from agitation of compounds in 0.1 M phosphate buffer at pH 7.4 for 24 hours at 25° C. The supernatant is separated from undissolved material by double centrifugation and subsequently analysed and quantified against a standard of known concentration in DMSO using generic HPLC-UV methodology coupled with mass spectral peak identification.

[3] = target: T1, P-glycoprotein (KBA1 cells) (Homo sapiens, UniProt P08183); test: P-gp substrate activity, Dose Modification Ratio with/without Verapamil, SRB assay; assay type: in vitro ADME; conditions: IC50 without Verapamil / IC50 with 20 μM Verapamil, 5 days
T1 construct: Cells from the Hela cell line known as KBA1, which expressed high P-glycoprotein; endogenous in cells; host or cells: KBA1 (HeLa-derived) cells; matched non-P-gp line KB31
T1 sequence (P08183 whole entry): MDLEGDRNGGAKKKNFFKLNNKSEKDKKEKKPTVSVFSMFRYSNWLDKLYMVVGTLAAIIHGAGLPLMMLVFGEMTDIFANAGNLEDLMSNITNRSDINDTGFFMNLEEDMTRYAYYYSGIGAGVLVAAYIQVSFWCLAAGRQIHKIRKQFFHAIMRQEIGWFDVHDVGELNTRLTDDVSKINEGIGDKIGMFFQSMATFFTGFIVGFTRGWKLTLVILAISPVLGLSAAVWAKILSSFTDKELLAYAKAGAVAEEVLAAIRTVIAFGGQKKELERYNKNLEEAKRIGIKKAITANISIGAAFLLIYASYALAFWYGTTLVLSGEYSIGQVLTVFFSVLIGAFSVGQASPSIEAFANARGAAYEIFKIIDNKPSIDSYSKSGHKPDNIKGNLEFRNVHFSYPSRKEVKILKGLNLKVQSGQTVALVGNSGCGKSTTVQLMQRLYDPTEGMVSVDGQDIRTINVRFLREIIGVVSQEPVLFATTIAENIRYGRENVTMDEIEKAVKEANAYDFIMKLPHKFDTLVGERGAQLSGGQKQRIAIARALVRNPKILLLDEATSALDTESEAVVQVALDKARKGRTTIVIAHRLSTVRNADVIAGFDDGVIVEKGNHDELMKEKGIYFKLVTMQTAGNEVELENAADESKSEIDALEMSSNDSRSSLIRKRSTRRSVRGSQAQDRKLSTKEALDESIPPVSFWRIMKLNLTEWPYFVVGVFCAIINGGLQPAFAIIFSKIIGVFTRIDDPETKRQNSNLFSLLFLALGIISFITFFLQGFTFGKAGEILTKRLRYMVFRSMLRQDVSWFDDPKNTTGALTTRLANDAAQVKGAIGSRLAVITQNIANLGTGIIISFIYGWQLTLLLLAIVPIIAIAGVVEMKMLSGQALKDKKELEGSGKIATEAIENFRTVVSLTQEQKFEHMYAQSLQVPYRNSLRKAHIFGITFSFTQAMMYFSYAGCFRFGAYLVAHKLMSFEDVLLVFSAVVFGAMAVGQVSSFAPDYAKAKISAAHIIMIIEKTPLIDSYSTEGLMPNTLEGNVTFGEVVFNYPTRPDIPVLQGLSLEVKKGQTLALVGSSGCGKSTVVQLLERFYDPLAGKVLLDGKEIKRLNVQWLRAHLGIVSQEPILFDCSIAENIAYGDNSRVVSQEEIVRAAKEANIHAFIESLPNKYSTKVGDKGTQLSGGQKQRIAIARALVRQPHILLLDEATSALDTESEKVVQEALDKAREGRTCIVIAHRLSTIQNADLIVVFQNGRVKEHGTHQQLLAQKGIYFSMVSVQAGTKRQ
Method: Cells from the Hela cell line known as KBA1, which expressed high P-glycoprotein (ABC1a and ABC1b transporter glycoproteins also known as MDR1a and MDR1b) and the matched non-P-glycoprotein expressing line known as KB31, were seeded onto 96 well tissue culture plates with 80 μl per well of 1.00×10^4 cells/ml=800 cells/well [DMEM, 10% FBS, PSG] and left to adhere for 4 hours. After the incubation period 10 μl per well of 200 μM Verapamil (giving a final conc. of 20 μM) a known inhibitor of P-gp or vehicle media were added to various wells of the cell plates. The 96 well plates were left in the incubator for 1 hour prior to 10 μl of test compound (or the known substrate Etoposide as a reference control) or 10 μl PBS/1% DMSO vehicle (control wells) being added into either Verapamil containing or media control wells. […]
The cell plates were then incubated for 5 days prior to cell growth being assessed using the Sulforhodamine B (SRB) assay as described previously. The P-gp substrate activity for each compound was calculated using the cell growth activity of the tests compounds on the KBA1 cells in the presence or absence (control wells) of Verapamil. The Dose Modification Ratio (DMR) is calculated from the KBA1 where for each test compound a ratio of the IC50 of the compound in the absence of Verapamil is divided by the IC50 of cell growth in the presence of Verapamil. […]

Compound	PF50 (30 nM) [1]	PF50 (200 nM) [1]	solubility [2] [µmol]	Dose Modification Ratio (DMR) [3]
COC1CCN(C(=O)c2cc(Cc3n[nH]c(=O)c4ccccc34)ccc2F)CC1 [Compound 2b, 4-(4-fluoro-3-(4-methoxypiperidine-1-carbonyl)benzyl)phthalazin-1(2H)-one]	3.0	15	1070	1.3
CCOC1CCN(C(=O)c2cc(Cc3n[nH]c(=O)c4ccccc34)ccc2F)CC1 [Compound 2f, 4-(3-(4-ethoxypiperidine-1-carbonyl)-4-fluorobenzyl)phthalazin-1(2H)-one]	14.1	25	211	1.0
